# In ChEMBL document CHEMBL3856191, “Structural modifications at the 6-position of thieno[2,3-d]pyrimidines and their effects on potency at FLT3 for treatment of acute myeloid leukemia” (Eur J Med Chem, 2016):
# pIC50: −log10 of the molar value.
# What was measured:
# [1] = cells; details: Homo sapiens, THP-1, 48 h
# Description: Growth inhibition of human THP1 cells expressing wild type FLT-3 after 48 hrs by XTT assay
# [2] = Clearance in Sprague-Dawley rat at 5 mg/kg, iv up to 24 hrs by LC/MS/MS analysis; assay type: ADME, organism-based; details: in vivo
# [3] = Metabolic stability in rat liver microsomes assessed as compound remaining at 1 uM after 30 mins in presence of NADPH by HPLC-MS analysis; assay type: ADME; details: liver microsomes, read-out: Stability
# [4] = molecular target: Mitogen-activated protein kinase 1 (Homo sapiens) (UniProt P28482); test: Inhibition of recombinant human MAPK1 expressed in Escherichia coli assessed as remaining activity at 10 uM preincubated for 15 mins followed by myelin basic protein substrate addition for 30 mins in presence of [gamma-32P]ATP by […] assay
# [5] = molecular target: Tyrosine-protein kinase BTK (Homo sapiens) (UniProt Q06187); test: Inhibition of recombinant human BTK expressed in insect Sf21 cells assessed as remaining activity at 10 uM preincubated for 15 mins followed by poly(Glu:Tyr) substrate addition for 30 mins in presence of [gamma-32P]ATP by […] assay
# [6] = molecular target: PI3-kinase p110-alpha/p85-alpha (Homo sapiens) (UniProt P27986+P42336); test: Inhibition of PI3K P110alpha/p85alpha (unknown origin) assessed as remaining activity at 10 uM in presence of [gamma-32P]ATP by […] assay; assay type: protein-complex assay
# [7] = molecular target: PI3-kinase p110-delta/p85-alpha (Homo sapiens) (UniProt P27986+O00329); test: Inhibition of PI3K p110delta/p85alpha (unknown origin) assessed as remaining activity at 10 uM in presence of [gamma-32P]ATP by […] assay; assay type: protein-complex assay
# [8] = Elimination half life in Sprague-Dawley rat at 5 mg/kg, iv by LC/MS/MS analysis; assay type: ADME, organism-based; details: in vivo, read-out: beta t1/2 (converted)
# [9] = molecular target: Inhibitor of nuclear factor kappa-B kinase subunit beta (Homo sapiens) (UniProt O14920); test: Inhibition of recombinant human IKK-beta expressed in insect Sf21 cells assessed as remaining activity at 10 uM preincubated for 15 mins followed by IKKtide substrate addition for 30 mins in presence of [gamma-32P]ATP by […] assay
# [10] = molecular target: Aurora kinase A (Homo sapiens) (UniProt O14965); test: Inhibition of recombinant human AURORA A expressed in insect Sf21 cells assessed as remaining activity at 10 uM preincubated for 15 mins followed by Kemptide substrate addition for 30 mins in presence of [gamma-32P]ATP by […] assay
# [11] = molecular target: Epidermal growth factor receptor (Homo sapiens) (UniProt P00533); test: Inhibition of human EGFR assessed as remaining activity at 10 uM in presence of [gamma-32P]ATP by […] assay
# [12] = molecular target: Proto-oncogene tyrosine-protein kinase receptor Ret (Homo sapiens) (UniProt P07949); test: Inhibition of recombinant human RET expressed in insect Sf21 cells assessed as remaining activity at 10 uM preincubated for 15 mins followed by poly(Glu:Tyr) substrate addition for 30 mins in presence of [gamma-32P]ATP by […] assay
# [13] = molecular target: Platelet-derived growth factor receptor beta (Homo sapiens) (UniProt P09619); test: Inhibition of recombinant human PDGFR-beta expressed in insect Sf21 cells assessed as remaining activity at 10 uM preincubated for 15 mins followed by poly(Glu:Tyr) substrate addition for 30 mins in presence of [gamma-32P]ATP by […] assay
# [14] = molecular target: Dual specificity mitogen-activated protein kinase kinase 6 (Homo sapiens) (UniProt P52564); test: Inhibition of human MKK6 assessed as remaining activity at 10 uM in presence of [gamma-32P]ATP by […] assay
# [15] = molecular target: MAP kinase-activated protein kinase 2 (Homo sapiens) (UniProt P49137); test: Inhibition of recombinant human MAPKAPK2 expressed in Escherichia coli assessed as remaining activity at 10 uM preincubated for 15 mins followed by MAPKAPK substrate peptide addition for 30 mins in presence of [gamma-32P]ATP by […] assay
# [16] = molecular target: Ribosomal protein S6 kinase alpha-5 (Homo sapiens) (UniProt O75582); test: Inhibition of recombinant human MSK1 expressed in insect Sf21 cells assessed as remaining activity at 10 uM preincubated for 15 mins followed by Crosstide KK substrate addition for 30 mins in presence of [gamma-32P]ATP by […] assay
# [17] = molecular target: Dual specificity mitogen-activated protein kinase kinase 1 (Homo sapiens) (UniProt Q02750); test: Inhibition of recombinant human MEK1 expressed in Escherichia coli assessed as remaining activity at 10 uM preincubated for 15 mins followed by myelin basic protein substrate addition for 30 mins in presence of [gamma-32P]ATP by […] assay
# [18] = Cmax in Sprague-Dawley rat at 30 mg/kg, po by LC/MS/MS analysis; assay type: ADME, organism-based; set-up: dose 30 mg/kg, route oral; details: in vivo
# [19] = AUC (0 to infinity) in Sprague-Dawley rat at 30 mg/kg, up to 24 hrs by LC/MS/MS analysis; assay type: ADME, organism-based; set-up: dose 30 mg/kg, time infinity; details: in vivo
# [20] = molecular target: Tyrosine-protein kinase ABL2 (Homo sapiens) (UniProt P42684); test: Inhibition of human recombinant ARG expressed in sf21 cells assessed as remaining activity at 10 uM preincubated for 15 mins followed by Poly(Glu:Tyr) addition measured after 30 mins in presence of [gamma-32P]ATP by […] assay
# [21] = molecular target: Receptor-type tyrosine-protein kinase FLT3 (Homo sapiens, UniProt P36888, D835Y)
# Description: Inhibition of human FLT3 D835Y mutant preincubated for 15 mins followed by poly(Glu:Tyr) substrate addition for 30 mins in presence of [gamma-32P]ATP by TR-FRET assay
# [22] = molecular target: Angiopoietin-1 receptor (Homo sapiens, UniProt Q02763); test: Inhibition of human TIE2 preincubated for 15 mins followed by substrate addition measured after 30 mins in presence of [gamma-32P]ATP by […] assay
# [23] = molecular target: Dual specificity mitogen-activated protein kinase kinase 7 (Homo sapiens) (UniProt O14733); test: Inhibition of human MKK7beta assessed as remaining activity at 10 uM in presence of [gamma-32P]ATP by […] assay
# [24] = molecular target: Mast/stem cell growth factor receptor Kit (Homo sapiens) (UniProt P10721); test: Inhibition of recombinant human c-Kit expressed in insect High-5 cells assessed as remaining activity at 10 uM preincubated for 15 mins followed by poly(Glu:Tyr) substrate addition for 30 mins in presence of [gamma-32P]ATP by […] assay; details: BTI-TN-5B1-4
# [25] = molecular target: Fibroblast growth factor receptor 1 (Homo sapiens) (UniProt P11362); test: Inhibition of recombinant human FGFR1 expressed in insect Sf21 cells assessed as remaining activity at 10 uM preincubated for 15 mins followed by poly(Glu:Tyr) substrate addition for 30 mins in presence of [gamma-32P]ATP by […] assay
# [26] = molecular target: Platelet-derived growth factor receptor alpha (Homo sapiens) (UniProt P16234); test: Inhibition of recombinant human PDGFR-alpha expressed in insect Sf21 cells assessed as remaining activity at 10 uM preincubated for 15 mins followed by poly(Glu:Tyr) substrate addition for 30 mins in presence of [gamma-32P]ATP by […] assay
# Sequence of Angiopoietin-1 receptor (Q02763 whole entry): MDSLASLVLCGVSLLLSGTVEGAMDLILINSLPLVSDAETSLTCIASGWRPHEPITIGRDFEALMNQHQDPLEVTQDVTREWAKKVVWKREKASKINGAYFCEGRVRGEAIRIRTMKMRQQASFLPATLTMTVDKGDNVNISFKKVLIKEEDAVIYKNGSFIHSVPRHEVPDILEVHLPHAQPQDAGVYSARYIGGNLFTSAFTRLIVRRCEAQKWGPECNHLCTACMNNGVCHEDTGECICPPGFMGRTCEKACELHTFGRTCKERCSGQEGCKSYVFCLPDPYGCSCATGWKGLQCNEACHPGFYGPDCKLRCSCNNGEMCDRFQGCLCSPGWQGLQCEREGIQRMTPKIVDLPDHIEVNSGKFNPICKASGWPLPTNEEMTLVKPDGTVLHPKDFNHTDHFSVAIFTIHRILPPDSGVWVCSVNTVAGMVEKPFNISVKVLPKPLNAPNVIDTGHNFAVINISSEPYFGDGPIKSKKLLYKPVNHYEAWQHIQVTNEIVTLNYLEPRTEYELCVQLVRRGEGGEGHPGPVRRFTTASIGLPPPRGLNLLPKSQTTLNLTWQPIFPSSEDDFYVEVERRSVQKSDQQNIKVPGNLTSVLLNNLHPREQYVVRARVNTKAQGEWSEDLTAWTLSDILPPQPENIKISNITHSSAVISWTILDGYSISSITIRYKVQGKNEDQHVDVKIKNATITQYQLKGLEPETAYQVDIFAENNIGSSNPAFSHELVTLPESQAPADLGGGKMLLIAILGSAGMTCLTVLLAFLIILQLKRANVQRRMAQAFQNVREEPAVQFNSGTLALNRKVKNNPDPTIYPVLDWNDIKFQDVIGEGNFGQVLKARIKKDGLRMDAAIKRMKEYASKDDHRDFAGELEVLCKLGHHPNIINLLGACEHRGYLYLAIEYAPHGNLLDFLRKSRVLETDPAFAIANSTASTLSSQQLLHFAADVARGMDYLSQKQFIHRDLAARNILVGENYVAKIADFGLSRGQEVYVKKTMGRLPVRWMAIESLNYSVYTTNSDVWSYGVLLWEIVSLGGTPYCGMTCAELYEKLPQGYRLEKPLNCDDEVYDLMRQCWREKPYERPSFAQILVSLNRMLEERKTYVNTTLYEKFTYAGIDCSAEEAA
# Sequence of Proto-oncogene tyrosine-protein kinase receptor Ret (Homo sapiens) (P07949 whole entry): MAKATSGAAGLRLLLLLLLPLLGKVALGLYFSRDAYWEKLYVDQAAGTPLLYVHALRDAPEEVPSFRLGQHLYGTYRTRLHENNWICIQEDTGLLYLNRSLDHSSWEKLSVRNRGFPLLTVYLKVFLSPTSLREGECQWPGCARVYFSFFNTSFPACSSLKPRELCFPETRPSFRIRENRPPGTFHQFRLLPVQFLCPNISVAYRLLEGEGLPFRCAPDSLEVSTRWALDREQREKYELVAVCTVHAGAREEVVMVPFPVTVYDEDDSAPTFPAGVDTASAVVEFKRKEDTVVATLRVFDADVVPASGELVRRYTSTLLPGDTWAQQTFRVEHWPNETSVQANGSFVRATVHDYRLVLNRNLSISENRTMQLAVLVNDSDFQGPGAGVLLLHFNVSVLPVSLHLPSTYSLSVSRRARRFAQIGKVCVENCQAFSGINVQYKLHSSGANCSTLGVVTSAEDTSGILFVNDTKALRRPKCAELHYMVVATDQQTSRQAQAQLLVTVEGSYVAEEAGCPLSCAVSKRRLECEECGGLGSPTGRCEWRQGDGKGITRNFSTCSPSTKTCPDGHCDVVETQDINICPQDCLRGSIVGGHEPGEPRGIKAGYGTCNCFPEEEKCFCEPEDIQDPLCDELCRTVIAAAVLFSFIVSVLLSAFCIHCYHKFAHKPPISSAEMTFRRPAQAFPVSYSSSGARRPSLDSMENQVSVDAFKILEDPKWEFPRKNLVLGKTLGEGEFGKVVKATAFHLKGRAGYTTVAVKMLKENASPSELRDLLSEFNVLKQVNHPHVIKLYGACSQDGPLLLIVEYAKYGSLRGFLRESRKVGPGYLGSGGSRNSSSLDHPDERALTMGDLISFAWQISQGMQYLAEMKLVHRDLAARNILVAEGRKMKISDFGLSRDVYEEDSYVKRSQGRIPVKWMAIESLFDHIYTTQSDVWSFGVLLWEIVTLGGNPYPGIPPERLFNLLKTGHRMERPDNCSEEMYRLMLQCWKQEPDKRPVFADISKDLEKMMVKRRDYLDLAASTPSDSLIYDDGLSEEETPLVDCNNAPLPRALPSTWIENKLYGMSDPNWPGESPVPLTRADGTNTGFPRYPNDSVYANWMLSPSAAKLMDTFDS
# Sequence of MAP kinase-activated protein kinase 2 (Homo sapiens) (P49137 whole entry, looked up): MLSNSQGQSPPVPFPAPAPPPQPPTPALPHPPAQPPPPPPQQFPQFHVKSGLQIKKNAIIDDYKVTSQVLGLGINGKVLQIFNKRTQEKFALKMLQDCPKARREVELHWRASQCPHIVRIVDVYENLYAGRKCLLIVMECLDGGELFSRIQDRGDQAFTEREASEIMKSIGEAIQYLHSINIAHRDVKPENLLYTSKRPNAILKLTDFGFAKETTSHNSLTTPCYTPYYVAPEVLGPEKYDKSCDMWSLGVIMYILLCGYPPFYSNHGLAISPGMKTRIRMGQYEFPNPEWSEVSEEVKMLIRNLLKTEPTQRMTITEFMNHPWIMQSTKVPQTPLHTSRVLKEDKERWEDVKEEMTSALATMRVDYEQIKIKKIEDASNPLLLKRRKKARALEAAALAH
# Sequence of Tyrosine-protein kinase ABL2 (Homo sapiens) (P42684 whole entry): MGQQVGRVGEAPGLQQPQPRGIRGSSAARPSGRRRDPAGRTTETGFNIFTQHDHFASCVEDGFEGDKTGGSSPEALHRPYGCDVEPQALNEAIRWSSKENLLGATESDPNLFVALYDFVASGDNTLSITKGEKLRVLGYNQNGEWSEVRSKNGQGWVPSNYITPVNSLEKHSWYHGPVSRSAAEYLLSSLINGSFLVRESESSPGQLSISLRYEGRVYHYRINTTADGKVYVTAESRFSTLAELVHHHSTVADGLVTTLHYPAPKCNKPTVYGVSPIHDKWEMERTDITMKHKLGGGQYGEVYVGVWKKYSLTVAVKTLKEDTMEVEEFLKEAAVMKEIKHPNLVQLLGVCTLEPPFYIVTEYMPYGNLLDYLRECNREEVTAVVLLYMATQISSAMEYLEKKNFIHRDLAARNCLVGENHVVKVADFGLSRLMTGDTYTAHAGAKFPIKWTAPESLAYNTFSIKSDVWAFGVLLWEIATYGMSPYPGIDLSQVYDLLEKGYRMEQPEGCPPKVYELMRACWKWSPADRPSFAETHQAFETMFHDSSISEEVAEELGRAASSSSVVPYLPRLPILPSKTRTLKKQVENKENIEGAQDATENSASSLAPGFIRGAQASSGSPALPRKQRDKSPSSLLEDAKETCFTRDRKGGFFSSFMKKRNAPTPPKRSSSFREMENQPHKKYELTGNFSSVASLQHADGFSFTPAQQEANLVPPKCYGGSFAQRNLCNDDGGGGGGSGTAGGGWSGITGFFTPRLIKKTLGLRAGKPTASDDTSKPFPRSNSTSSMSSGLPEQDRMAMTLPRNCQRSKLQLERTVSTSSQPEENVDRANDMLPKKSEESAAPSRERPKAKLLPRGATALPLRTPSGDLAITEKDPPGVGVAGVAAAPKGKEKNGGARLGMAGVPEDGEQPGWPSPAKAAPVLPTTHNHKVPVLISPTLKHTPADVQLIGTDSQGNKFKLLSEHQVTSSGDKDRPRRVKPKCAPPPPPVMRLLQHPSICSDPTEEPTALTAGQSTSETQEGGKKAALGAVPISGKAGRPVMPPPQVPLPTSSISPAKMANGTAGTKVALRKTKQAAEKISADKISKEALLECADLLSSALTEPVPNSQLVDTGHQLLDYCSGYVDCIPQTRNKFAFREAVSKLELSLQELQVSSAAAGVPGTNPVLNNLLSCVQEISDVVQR
# Sequence of Aurora kinase A (Homo sapiens) (O14965 whole entry): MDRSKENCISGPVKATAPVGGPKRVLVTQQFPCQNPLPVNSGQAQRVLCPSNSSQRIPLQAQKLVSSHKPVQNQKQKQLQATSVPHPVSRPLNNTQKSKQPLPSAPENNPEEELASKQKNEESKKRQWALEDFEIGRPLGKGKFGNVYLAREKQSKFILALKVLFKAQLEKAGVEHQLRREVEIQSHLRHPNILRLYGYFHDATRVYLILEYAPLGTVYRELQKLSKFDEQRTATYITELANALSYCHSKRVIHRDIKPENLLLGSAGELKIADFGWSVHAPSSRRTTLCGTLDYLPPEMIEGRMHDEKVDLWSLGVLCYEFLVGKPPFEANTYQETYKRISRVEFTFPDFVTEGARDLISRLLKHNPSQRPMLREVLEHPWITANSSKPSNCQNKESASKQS
# Sequence of Mitogen-activated protein kinase 1 (Homo sapiens) (P28482 whole entry): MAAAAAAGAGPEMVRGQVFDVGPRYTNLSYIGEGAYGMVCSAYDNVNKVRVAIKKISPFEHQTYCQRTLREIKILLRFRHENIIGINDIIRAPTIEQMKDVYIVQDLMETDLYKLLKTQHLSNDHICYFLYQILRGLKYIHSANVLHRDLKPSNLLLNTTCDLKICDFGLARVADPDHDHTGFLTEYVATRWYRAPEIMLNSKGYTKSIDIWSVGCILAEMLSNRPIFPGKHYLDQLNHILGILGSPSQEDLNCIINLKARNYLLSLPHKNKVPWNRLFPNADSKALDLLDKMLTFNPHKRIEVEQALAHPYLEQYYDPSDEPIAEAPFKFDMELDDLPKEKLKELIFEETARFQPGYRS
# Sequence of Dual specificity mitogen-activated protein kinase kinase 6 (Homo sapiens) (P52564 whole entry): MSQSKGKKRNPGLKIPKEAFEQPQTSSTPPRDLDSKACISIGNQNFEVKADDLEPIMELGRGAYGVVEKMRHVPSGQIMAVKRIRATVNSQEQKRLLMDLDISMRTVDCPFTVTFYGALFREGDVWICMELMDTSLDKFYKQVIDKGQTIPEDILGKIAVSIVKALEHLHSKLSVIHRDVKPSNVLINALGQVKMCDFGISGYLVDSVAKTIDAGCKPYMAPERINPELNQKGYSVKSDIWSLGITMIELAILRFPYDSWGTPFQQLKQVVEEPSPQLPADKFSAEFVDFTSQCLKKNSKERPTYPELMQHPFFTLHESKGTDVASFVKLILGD
smiles,measurement,setting,value
CNCCOc1ccc(-c2sc3nc(-c4cccs4)nc(NN4C(=O)C=C(C)C4=O)c3c2C)cc1.Cl,GI50,[1],559 nM
same,clearance,[2],36.6 mL/min/kg
same,"remaining at 0.5 h, 1 µM",[3],67.1%
same,Activity,[4],114%
same,Activity,[5],83%
same,Activity,[6],96%
same,Activity,[7],37%
same,half-life,[8],7.61 h
same,Activity,[9],63%
same,Activity,[10],67%
same,Activity,[11],87%
same,Activity,[12],42%
same,Activity,[13],88%
same,Activity,[14],102%
same,Activity,[15],63 to 100%
same,Activity,[16],110%
same,Activity,[17],103%
same,Cmax,[18],420 ng/mL
same,AUC(0-inf),[19],2170 ng·h/mL
same,Activity,[20],52%
same,pIC50,[21],7.99
same,pIC50,[22],5.01
same,Activity,[23],111%
same,Activity,[24],75%
same,Activity,[25],53%
same,Activity,[26],115%
